target: T1, CDK8/Cyclin C (Homo sapiens, UniProt P49336); experiment: CDK8/Cyclin C LANCE TR-FRET kinase assay; type: biochemical; settings: CDK8/Cyclin C 10 nM, ATP 24 μM, Ulight-GS peptide 80 nM, 37° C. 30 mins
T1 construct: purchased Invitrogen PV4402
Source text: CDK8/Cyclin C LANCE TR-FRET Kinase Assay:
The biological activity of the compounds of the invention can be determined using the assay described below.
CDK8/Cyclin C protein was obtained from Invitrogen, cat #PV4402. ULight-Glycogen Synthase (Ulight-GS) peptide with sequence PASVPPSPSLSRHSSPHQ(pS)ED, and Europium-anti-phospho Glycogen Synthase (Ser641) [Eu-anti-P-GS (Ser641)] were obtained from Perkin Elmer, cat #TRF0131-M and cat #TRF0220. Adenosine-5′-triphosphate (ATP) was obtained from Invitrogen, cat #PV3227.
A mixture of (1) a compound of formula I, (2) substrate [Ulight-GS peptide (80 nM) and ATP (24 μM)], and (3) CDK8/Cyclin C (10 nM) in reaction buffer (50 mM Hepes, pH7.0, 10 mM MgCl2, 1 mM EGTA, 0.2 mg/mL BSA, 0.8 mM DTT) were incubated at 37° C. for 30 mins. Then, [Eu-anti-P-GS (Ser641)] (1.5 nM) was added. Following incubation at room temperature for 30 mins, the TR-FRET signals were detected using Envision reader (Ex 340 nm, Em 615 nm and 665 nm) from Perkin Elmer. The reactivity in percentage of inhibition or dose response was analyzed with GraphPad Prism 5 (GraphPad Software).

T1 sequence (P49336 whole entry): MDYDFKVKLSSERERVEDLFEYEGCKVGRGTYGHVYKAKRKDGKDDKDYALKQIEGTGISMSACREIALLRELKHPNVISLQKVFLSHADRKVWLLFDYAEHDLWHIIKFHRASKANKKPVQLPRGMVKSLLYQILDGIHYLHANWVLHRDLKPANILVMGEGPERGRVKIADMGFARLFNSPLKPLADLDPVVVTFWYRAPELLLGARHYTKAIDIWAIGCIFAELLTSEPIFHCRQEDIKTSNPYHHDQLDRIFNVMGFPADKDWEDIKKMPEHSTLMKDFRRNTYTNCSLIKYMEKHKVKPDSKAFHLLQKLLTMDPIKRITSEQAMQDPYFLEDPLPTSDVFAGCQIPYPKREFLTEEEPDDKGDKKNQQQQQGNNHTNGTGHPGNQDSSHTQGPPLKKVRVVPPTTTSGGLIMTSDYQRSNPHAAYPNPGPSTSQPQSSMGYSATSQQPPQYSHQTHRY
T1 sequence (P24863 whole entry partner): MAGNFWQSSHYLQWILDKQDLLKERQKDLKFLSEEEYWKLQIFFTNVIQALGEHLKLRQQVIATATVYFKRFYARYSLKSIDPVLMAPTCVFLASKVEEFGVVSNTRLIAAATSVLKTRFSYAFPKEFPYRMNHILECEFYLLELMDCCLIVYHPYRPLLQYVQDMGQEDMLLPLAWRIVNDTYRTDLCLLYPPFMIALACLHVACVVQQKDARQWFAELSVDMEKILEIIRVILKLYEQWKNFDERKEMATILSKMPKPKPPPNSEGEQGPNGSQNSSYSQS

Compound | IC50 [nM]
CC1(C)C(=O)Nc2ccc(-c3cncc(N[C@@H](CO)c4ccccc4)c3)cc21 [Example 2, 5-[5-((R)-2-Hydroxy-1-phenyl-ethylamino)-pyridin-3-yl]-3,3-dimethyl-1,3-dihydro-indol-2-one] | 132
O=C1Cc2cc(-c3cncc(N[C@H](CO)c4ccccc4Cl)c3)ccc2N1 [Example 4, 5-{5-[(S)-1-(2-Chloro-phenyl)-2-hydroxy-ethylamino]-pyridin-3-yl}-1,3-dihydro-indol-2-one] | 157
O=C1Cc2cc(-c3cncc(N[C@@H](CO)c4ccccc4)c3)cnc2N1 [Example 7, 5-[5-((R)-2-Hydroxy-1-phenyl-ethylamino)-pyridin-3-yl]-1,3-dihydro-pyrrolo[2,3-b]pyridin-2-one] | 315
O=C1Nc2ccc(-c3cncc(N[C@@H](CO)c4ccccc4)c3)cc2C1(F)F [Example 8, 3,3-Difluoro-5-[5-((R)-2-hydroxy-1-phenyl-ethylamino)-pyridin-3-yl]-1,3-dihydro-indol-2-one] | 37.6
O=C1Cc2nc(-c3cncc(N[C@@H](CO)c4ccccc4)c3)ccc2N1 [Example 9, 5-[5-((R)-2-Hydroxy-1-phenyl-ethylamino)-pyridin-3-yl]-1,3-dihydro-pyrrolo[3,2-b]pyridin-2-one] | 81.3
O=C1Cc2cc(-c3cncc(N[C@@H](CO)c4ccccc4)c3)cc(F)c2N1 [Example 11, 7-Fluoro-5-[5-((R)-2-hydroxy-1-phenyl-ethylamino)-pyridin-3-yl]-1,3-dihydro-indol-2-one] | 27.8
O=c1[nH]c2ccc(-c3cncc(N[C@@H](CO)c4ccccc4)c3)cc2o1 [Example 12, 6-[5-((R)-2-Hydroxy-1-phenyl-ethylamino)-pyridin-3-yl]-3H-benzooxazol-2-one] | 3.8
O=c1[nH]c2ccc(-c3cncc(N[C@@H](CO)c4ccccc4)c3)cc2s1 [Example 13, 6-[5-((R)-2-Hydroxy-1-phenyl-ethylamino)-pyridin-3-yl]-3H-benzothiazol-2-one] | 7.8
OC[C@H](Nc1cncc(-c2ccc3c(c2)OCO3)c1)c1ccccc1 [Example 14, (R)-2-(5-Benzo[1,3]dioxol-5-yl-pyridin-3-ylamino)-2-phenyl-ethanol] | 46.3
OC[C@H](Nc1cncc(-c2ccc3c(c2)OCCO3)c1)c1ccccc1 [Example 15, (R)-2-[5-(2,3-Dihydro-benzo[1,4]dioxin-6-yl)-pyridin-3-ylamino]-2-phenyl-ethanol] | 350
OC[C@H](Nc1cncc(-c2cccc3[nH]ccc23)c1)c1ccccc1 [Example 17, (R)-2-[5-(1H-Indol-4-yl)-pyridin-3-ylamino]-2-phenyl-ethanol] | 191
OC[C@H](Nc1cncc(-c2ccc3[nH]nnc3c2)c1)c1ccccc1 [Example 26, (R)-2-[5-(1H-Benzotriazol-5-yl)-pyridin-3-ylamino]-2-phenyl-ethanol] | 9.4
OC[C@H](Nc1cncc(-c2ccc3[nH]ncc3n2)c1)c1ccccc1 [Example 27, (R)-2-Phenyl-2-[5-(1H-pyrazolo[4,3-b]pyridin-5-yl)-pyridin-3-ylamino]-ethanol] | 9.7
NC(=O)C(Nc1cncc(-c2ccc3c(c2)CC(=O)N3)c1)c1ccccc1 (stereo not drawn) [Example 29, 2-[5-(2-Oxo-2,3-dihydro-1H-indol-5-yl)-pyridin-3-ylamino]-2-phenyl-acetamide] | 67.2
CC(=O)NC[C@H](Nc1cncc(-c2ccc3c(c2)CC(=O)N3)c1)c1ccccc1 [Example 30, N-{(R)-2-[5-(2-Oxo-2,3-dihydro-1H-indol-5-yl)-pyridin-3-ylamino]-2-phenyl-ethyl}-acetamide] | 22.7
NC(=O)C(Nc1cncc(-c2ccc3c(c2)CNC3=O)c1)c1ccccc1 (stereo not drawn) [Example 31, 2-[5-(l-Oxo-2,3-dihydro-1H-isoindol-5-yl)-pyridin-3-ylamino]-2-phenyl-acetamide] | 294
CC1(C)C(=O)Nc2ccc(-c3cncc(NC(C(N)=O)c4ccccc4)c3)cc21 (stereo not drawn) [Example 32, 2-[5-(3,3-Dimethyl-2-oxo-2,3-dihydro-1H-indol-5-yl)-pyridin-3-ylamino]-2-phenyl-acetamide] | 813
NC(=O)C(Nc1cncc(-c2ccc3c(c2)CCC(=O)N3)c1)c1ccccc1 (stereo not drawn) [Example 33, 2-[5-(2-Oxo-1,2,3,4-tetrahydro-quinolin-6-yl)-pyridin-3-ylamino]-2-phenyl-acetamide] | 1890
NC(=O)C(Nc1cncc(-c2cc3c(cc2F)NC(=O)CC3)c1)c1ccccc1 (stereo not drawn) [Example 34, 2-[5-(7-Fluoro-2-oxo-1,2,3,4-tetrahydro-quinolin-6-yl)-pyridin-3-ylamino]-2-phenyl-acetamide] | 1400
NC(=O)C(Nc1cncc(-c2ccc3c(c2)OCO3)c1)c1ccccc1 (stereo not drawn) [Example 35, 2-(5-Benzo[1,3]dioxol-5-yl-pyridin-3-ylamino)-2-phenyl-acetamide] | 559
NC(=O)C(Nc1cncc(-c2ccc3c(c2)OCCO3)c1)c1ccccc1 (stereo not drawn) [Example 36, 2-[5-(2,3-Dihydro-benzo[1,4]dioxin-6-yl)-pyridin-3-ylamino]-2-phenyl-acetamide] | 2510
NC(=O)C(Nc1cncc(-c2ccc3[nH]ncc3c2)c1)c1ccccc1 (stereo not drawn) [Example 37, 2-[5-(1H-Indazol-5-yl)-pyridin-3-ylamino]-2-phenyl-acetamide] | 3.4
NC(=O)[C@@H](Nc1cncc(-c2ccc3[nH]ncc3c2)c1)c1ccccc1 [Example 39, (S)-2-[5-(1H-indazol-5-yl)-pyridin-3-ylamino]-2-phenyl-acetamide] | 8.8

These reach a lower IC50. Values come first.

IC50 [nM] | Compound
2.1 | O=C1Cc2cc(-c3cncc(N[C@@H](CO)c4ccccc4Cl)c3)ccc2N1 [Example 3, 5-{5-[(R)-1-(2-Chloro-phenyl)-2-hydroxy-ethylamino]-pyridin-3-yl}-1,3-dihydro-indol-2-one]
1.1 | O=c1[nH]c2ccc(-c3cncc(N[C@@H](CO)c4ccccc4)c3)cc2[nH]1 [Example 5, 5-[5-((R)-2-Hydroxy-1-phenyl-ethylamino)-pyridin-3-yl]-1,3-dihydro-benzoimidazol-2-one]
2.9 | O=C1Nc2ccc(-c3cncc(N[C@@H](CO)c4ccccc4)c3)cc2C12CC2 [Example 6, (R)-5′-(5-((2-Hydroxy-1-phenylethyl)amino)pyridin-3-yl)-spiro[cyclopropane-1,3′-indolin]-2′-one]
0.5 | O=C1Cc2cc(-c3cncc(N[C@@H](CO)c4ccccc4)c3)c(F)cc2N1 [Example 10, 6-Fluoro-5-[5-((R)-2-hydroxy-1-phenyl-ethylamino)-pyridin-3-yl]-1,3-dihydro-indol-2-one]
0.8 | Nc1n[nH]c2ccc(-c3cncc(N[C@@H](CO)c4ccccc4)c3)cc12 [Example 18, (R)-2-[5-(3-Amino-1H-indazol-5-yl)-pyridin-3-ylamino]-2-phenyl-ethanol]
1.8 | OC[C@H](Nc1cncc(-c2ccc3[nH]nc(F)c3c2)c1)c1ccccc1 [Example 19]
0.5 | Cc1n[nH]c2ccc(-c3cncc(N[C@@H](CO)c4ccccc4)c3)cc12 [Example 20, (R)-2-[5-(3-Methyl-1H-indazol-5-yl)-pyridin-3-ylamino]-2-phenyl-ethanol]
1.5 | CCc1n[nH]c2ccc(-c3cncc(N[C@@H](CO)c4ccccc4)c3)cc12 [Example 21, (R)-2-[5-(3-Ethyl-1H-indazol-5-yl)-pyridin-3-ylamino]-2-phenyl-ethanol]
0.5 | CSc1n[nH]c2ccc(-c3cncc(N[C@@H](CO)c4ccccc4)c3)cc12 [Example 22, (R)-2-[5-(3-Methylsulfanyl-1H-indazol-5-yl)-pyridin-3-ylamino]-2-phenyl-ethanol]
3.2 | CS(=O)(=O)c1n[nH]c2ccc(-c3cncc(N[C@@H](CO)c4ccccc4)c3)cc12 [Example 23, (R)-2-[5-(3-Methanesulfonyl-1H-indazol-5-yl)-pyridin-3-ylamino]-2-phenyl-ethanol]
1.1 | OC[C@H](Nc1cncc(-c2cnc3[nH]ncc3c2)c1)c1ccccc1 [Example 24, (R)-2-Phenyl-2-[5-(1H-pyrazolo[3,4-b]pyridin-5-yl)-pyridin-3-ylamino]-ethanol]
0.7 | OC[C@H](Nc1cncc(-c2cc3cn[nH]c3cn2)c1)c1ccccc1 [Example 25, (R)-2-Phenyl-2-[5-(1H-pyrazolo[3,4-c]pyridin-5-yl)-pyridin-3-ylamino]-ethanol]
1 | OC[C@H](Nc1cncc(-c2ccc3[nH]nc(Cl)c3c2)c1)c1ccccc1 [Example 28, (R)-2-[5-(3-Chloro-1H-indazol-5-yl)-pyridin-3-ylamino]-2-phenyl-ethanol]
0.9 | NC(=O)[C@H](Nc1cncc(-c2ccc3[nH]ncc3c2)c1)c1ccccc1 [Example 38, (R)-2-[5-(1H-Indazol-5-yl)-pyridin-3-ylamino]-2-phenyl-acetamide]
1.8 | CC(=O)NC[C@H](Nc1cncc(-c2ccc3[nH]ncc3c2)c1)c1ccccc1 [Example 40, N-{(R)-2-[5-(1H-Indazol-5-yl)-pyridin-3-ylamino]-2-phenyl-ethyl}-acetamide]
0.3 | CS(=O)(=O)NC[C@H](Nc1cncc(-c2ccc3[nH]ncc3c2)c1)c1ccccc1 [Example 41, N-{(R)-2-[5-(1H-Indazol-5-yl)-pyridin-3-ylamino]-2-phenyl-ethyl}-methanesulfonamide]
